Measured values as given in article PMC3470872 (Biochemical pharmacology, 2012).
Values joined by “and” are separate entries in the source; they are usually repeats but may differ in a detail not shown here. Equal values may be shown once.

Legend:
[1] = target: T1, CES1 (Homo sapiens, UniProt P23141); experiment: Inactivation kinetics of recombinant CES1, pNPV hydrolysis progress curves; assay type: biochemical; conditions: comparison with oxon values of ref 24
T1 sequence (P23141 18-567): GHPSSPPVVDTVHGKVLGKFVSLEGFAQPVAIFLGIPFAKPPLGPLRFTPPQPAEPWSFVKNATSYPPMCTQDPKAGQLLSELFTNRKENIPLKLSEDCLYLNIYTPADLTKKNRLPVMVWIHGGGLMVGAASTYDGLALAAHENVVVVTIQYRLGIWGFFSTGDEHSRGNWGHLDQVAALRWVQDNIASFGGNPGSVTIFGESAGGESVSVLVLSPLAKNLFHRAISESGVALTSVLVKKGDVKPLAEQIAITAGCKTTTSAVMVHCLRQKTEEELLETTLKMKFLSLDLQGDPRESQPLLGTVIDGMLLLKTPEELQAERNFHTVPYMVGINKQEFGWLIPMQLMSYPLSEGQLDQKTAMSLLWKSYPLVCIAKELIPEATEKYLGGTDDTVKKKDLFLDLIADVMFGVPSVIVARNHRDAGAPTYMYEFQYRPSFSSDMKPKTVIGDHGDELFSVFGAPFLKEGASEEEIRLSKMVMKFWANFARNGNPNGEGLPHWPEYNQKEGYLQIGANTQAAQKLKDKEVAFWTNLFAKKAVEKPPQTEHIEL

[2] = tested on: HepG2 cells; experiment: Inhibition and recovery of esterase activity in intact HepG2 cells; assay type: cell-based
[3] = target: T1, CES1; assay type: biochemical
[4] = tested on: FAAH; conditions: rat brain membranes; cited from earlier work
[5] = target: rat ortholog of CES1; conditions: cited from earlier work
[6] = target: T1, CES1; experiment: Esterase activity of HepG2 cell lysate in presence of S-3030; assay type: biochemical
[7] = tested on: MAGL; conditions: mouse brain membrane proteome; cited from earlier work
[8] = target: T2, recombinant human CES2 (Homo sapiens, UniProt O00748); experiment: Inactivation kinetics of recombinant CES2, pNPV hydrolysis progress curves; assay type: biochemical; conditions: CES1 and MAGL versus CES2
T2 sequence (O00748 27-559): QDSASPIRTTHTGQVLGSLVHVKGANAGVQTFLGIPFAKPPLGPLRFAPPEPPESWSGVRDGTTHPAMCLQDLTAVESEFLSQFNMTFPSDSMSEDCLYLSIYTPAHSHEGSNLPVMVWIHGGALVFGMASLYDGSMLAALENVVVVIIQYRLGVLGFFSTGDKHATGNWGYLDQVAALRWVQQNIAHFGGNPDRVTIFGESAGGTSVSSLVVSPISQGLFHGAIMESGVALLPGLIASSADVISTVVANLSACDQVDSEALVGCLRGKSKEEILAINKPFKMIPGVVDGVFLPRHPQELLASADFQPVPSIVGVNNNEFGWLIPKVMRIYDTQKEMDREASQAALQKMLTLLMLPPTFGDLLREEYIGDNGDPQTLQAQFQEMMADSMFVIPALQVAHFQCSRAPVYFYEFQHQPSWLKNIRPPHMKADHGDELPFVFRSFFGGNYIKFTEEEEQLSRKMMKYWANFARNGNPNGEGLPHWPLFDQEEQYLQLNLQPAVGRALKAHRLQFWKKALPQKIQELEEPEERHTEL

chlorpyrifos oxon
more reactive toward CES1 than JZL184 [1]: 500 x

NC(=O)c1cccc(-c2cccc(OC(=O)NC3CCCCC3)c2)c1 [URB597]
esterase activity, % of the control activity ([2]; 10 μM, 30 min treatment, recovery over 48 hr): 50%
inhibition at 10 µM ([2]; Homo sapiens, HepG2, 0.5 h, read-out: inhibition of esterase activity): ≥ 90%
t1/2 (half life of reactivation) [3]: 11 h and 11 ± 4^a h
IC50 [4]: 4.6 nM

CNC(=O)Oc1cccc2ccccc12 [carbaryl]
ki (bimolecular rate constant) [5]: 856 M⁻¹ s⁻¹

O=C1C(=O)c2sccc2-c2ccsc21 [S-3030, Thieno[3,2-e][1]benzothiophene-4,5-dione]
esterase activity sensitive to S-3030-mediated inhibition ([6]; activity recovered by 48 hr following URB597 treatment (data not shown)): 74%
share of esterase activity accounted for by CES1 (S-3030 sensitive) ([6]; untreated HepG2 cell lysate, 10 μM S-3030, pNPV substrate): 71.5±2.1%

O=C(Oc1ccc([N+](=O)[O-])cc1)N1CCC(C(O)(c2ccc3c(c2)OCO3)c2ccc3c(c2)OCO3)CC1 [JZL184]
esterase activity remained depressed ([2]; 10 μM, 30 min treatment, over 48 hr after treatment): ~ 90%
inhibition of esterase activity ([2]; 10 μM, 30 min treatment, time 0, pNPV substrate): ≥ 90%
reactivation rate slower than CES1 inhibited by URB597 [3]: 4.5 x
t1/2 (half life of reactivation) [3]: 49 ± 15 h and 49 h and 49 ± 15^b h
bimolecular rate constants for CES1 and MAGL greater than for CES2 [8]: 17-38 fold
